Patent US12643859B2, “Pyridyl oxycarboxylic acid oxime derivative and preparation method therefor, weeding composition and application thereof” (Qingdao Kingagroot Chemical Compound Co., Ltd., priority 2018, dated 2026)

Test system: Monocotyledonous and dicotyledonous weed seeds and main crop seeds
Experiment: Post-emergence test experiment (Table 3, 1000 g a.i./ha)
Type: in vivo
Conditions: 3 weeks in greenhouse, fresh weight inhibition
Procedure: The above described growth inhibition rate is fresh weight inhibition rate.
Post-emergence test experiment: Monocotyledonous and dicotyledonous weed seeds and main crop seeds (i. e. wheat, corn, rice, soybean, cotton, oilseed, millet and sorghum.) were put into a plastic pot loaded with soil. Then covered with 0.5-2 cm soil, the seeds were allowed to grow in good greenhouse environment. The test plants were treated at 2-3 leaf stage 2 weeks after sowing. The test compounds of the invention were dissolved with acetone respectively, then added with tween-80, and using 1.5 liters per hectare of an emulsible concentrate of methyl oleate as a synergist, and diluted by certain amount of water to certain concentration. The solution was sprayed to the plants with a sprayer. Then the plants were cultured for 3 weeks in the greenhouse, and the experiment result of weed controlling effect was listed in tables 3-4.

Compound | Activity level (growth inhibition rate) Digitaria sanguinalis | Activity level (growth inhibition rate) Echinochloa crusgalli | Activity level (growth inhibition rate) Galium spurium | Activity level (growth inhibition rate) Leptochloa chinensis | Activity level (growth inhibition rate) Monochoria Vaginalis | Activity level (growth inhibition rate) Murdannia triquetra | Activity level (growth inhibition rate) Setaria viridis
CC(Oc1nc(F)c(Cl)c(N)c1Cl)C(=O)ON=C(c1ccccc1)c1ccc(C(F)(F)F)cc1 (stereo not drawn) [Compound 81] | 5 (Level 5: the growth inhibition rate is greater than 85%) | 5 (Level 5: the growth inhibition rate is greater than 85%) | 5 (Level 5: the growth inhibition rate is greater than 85%) | 5 (Level 5: the growth inhibition rate is greater than 85%) | 5 (Level 5: the growth inhibition rate is greater than 85%) | 5 (Level 5: the growth inhibition rate is greater than 85%) | 5 (Level 5: the growth inhibition rate is greater than 85%)
CC(Oc1nc(F)c(Cl)c(N)c1Cl)C(=O)ON=C(C(=O)NCCc1ccccc1)c1ccccc1 (stereo not drawn) [Compound 105] | 5 (Level 5: the growth inhibition rate is greater than 85%) | 5 (Level 5: the growth inhibition rate is greater than 85%) | 5 (Level 5: the growth inhibition rate is greater than 85%) | 5 (Level 5: the growth inhibition rate is greater than 85%) | 5 (Level 5: the growth inhibition rate is greater than 85%) | 5 (Level 5: the growth inhibition rate is greater than 85%) | 5 (Level 5: the growth inhibition rate is greater than 85%)
CC(=O)C(=NOC(=O)C(C)Oc1nc(F)c(Cl)c(N)c1Cl)c1ccc(NOc2ccccc2)cc1 (stereo not drawn) [Compound 91] | 5 (Level 5: the growth inhibition rate is greater than 85%) | 5 (Level 5: the growth inhibition rate is greater than 85%) | 5 (Level 5: the growth inhibition rate is greater than 85%) | 5 (Level 5: the growth inhibition rate is greater than 85%) | 5 (Level 5: the growth inhibition rate is greater than 85%) | 5 (Level 5: the growth inhibition rate is greater than 85%) | 5 (Level 5: the growth inhibition rate is greater than 85%)
CC(Oc1nc(F)c(Cl)c(N)c1Cl)C(=O)ON=C(Br)c1ccc(C#N)cc1 (stereo not drawn) [Compound 86] | 5 (Level 5: the growth inhibition rate is greater than 85%) | 5 (Level 5: the growth inhibition rate is greater than 85%) | 5 (Level 5: the growth inhibition rate is greater than 85%) | 5 (Level 5: the growth inhibition rate is greater than 85%) | 5 (Level 5: the growth inhibition rate is greater than 85%) | 5 (Level 5: the growth inhibition rate is greater than 85%) | 5 (Level 5: the growth inhibition rate is greater than 85%)
CC(Oc1nc(F)c(Cl)c(N)c1Cl)C(=O)ON=C(C(=O)NCc1ccccc1)c1ccccc1 (stereo not drawn) [Compound 101] | 5 (Level 5: the growth inhibition rate is greater than 85%) | 5 (Level 5: the growth inhibition rate is greater than 85%) | 5 (Level 5: the growth inhibition rate is greater than 85%) | 5 (Level 5: the growth inhibition rate is greater than 85%) | 5 (Level 5: the growth inhibition rate is greater than 85%) | 5 (Level 5: the growth inhibition rate is greater than 85%) | 5 (Level 5: the growth inhibition rate is greater than 85%)
CCc1cccc(C(Cl)=NOC(=O)C(C)Oc2nc(F)c(Cl)c(N)c2Cl)c1 (stereo not drawn) [Compound 85] | 5 (Level 5: the growth inhibition rate is greater than 85%) | 5 (Level 5: the growth inhibition rate is greater than 85%) | 5 (Level 5: the growth inhibition rate is greater than 85%) | 5 (Level 5: the growth inhibition rate is greater than 85%) | 5 (Level 5: the growth inhibition rate is greater than 85%) | 5 (Level 5: the growth inhibition rate is greater than 85%) | 5 (Level 5: the growth inhibition rate is greater than 85%)
CC(Oc1nc(F)c(Cl)c(N)c1Cl)C(=O)ON=C(C(=O)N(C)C)c1ccccc1 (stereo not drawn) [Compound 99] | 5 (Level 5: the growth inhibition rate is greater than 85%) | 5 (Level 5: the growth inhibition rate is greater than 85%) | 5 (Level 5: the growth inhibition rate is greater than 85%) | 5 (Level 5: the growth inhibition rate is greater than 85%) | 5 (Level 5: the growth inhibition rate is greater than 85%) | 5 (Level 5: the growth inhibition rate is greater than 85%) | 5 (Level 5: the growth inhibition rate is greater than 85%)
COc1ccc(CNC(=O)C(C)=NOC(=O)C(C)Oc2nc(F)c(Cl)c(N)c2Cl)cc1 (stereo not drawn) [Compound 103] | 5 (Level 5: the growth inhibition rate is greater than 85%) | 5 (Level 5: the growth inhibition rate is greater than 85%) | 5 (Level 5: the growth inhibition rate is greater than 85%) | 5 (Level 5: the growth inhibition rate is greater than 85%) | 5 (Level 5: the growth inhibition rate is greater than 85%) | 5 (Level 5: the growth inhibition rate is greater than 85%) | 5 (Level 5: the growth inhibition rate is greater than 85%)
CC(Oc1nc(F)c(Cl)c(N)c1Cl)C(=O)ON=C(c1ccccc1)c1ccc(F)cc1 (stereo not drawn) [Compound 83] | 5 (Level 5: the growth inhibition rate is greater than 85%) | 5 (Level 5: the growth inhibition rate is greater than 85%) | 5 (Level 5: the growth inhibition rate is greater than 85%) | 5 (Level 5: the growth inhibition rate is greater than 85%) | 5 (Level 5: the growth inhibition rate is greater than 85%) | 5 (Level 5: the growth inhibition rate is greater than 85%) | 5 (Level 5: the growth inhibition rate is greater than 85%)
